From paper PMC6662822, “Rational drug-design approach supported with thermodynamic studies — a peptide leader for the efficient bi-substrate inhibitor of protein kinase CK2” (Scientific Reports, 2019)
Where a SMILES comes first, the peptide text is derived from it. Where no end group is shown, it is not given here. The star is where a group is joined. X1 = O=C(c1c(Br)c(Br)c(Br)c2nn[nH]c12)*

What was measured:
[1] = molecular target: T1, hCK2α (Homo sapiens, UniProt P68400); assay: ADP-Glo kinase assay, inhibitory activity towards human CK2α; type: biochemical
T1 construct: His-tag; made in house
T1 sequence (P68400 whole entry): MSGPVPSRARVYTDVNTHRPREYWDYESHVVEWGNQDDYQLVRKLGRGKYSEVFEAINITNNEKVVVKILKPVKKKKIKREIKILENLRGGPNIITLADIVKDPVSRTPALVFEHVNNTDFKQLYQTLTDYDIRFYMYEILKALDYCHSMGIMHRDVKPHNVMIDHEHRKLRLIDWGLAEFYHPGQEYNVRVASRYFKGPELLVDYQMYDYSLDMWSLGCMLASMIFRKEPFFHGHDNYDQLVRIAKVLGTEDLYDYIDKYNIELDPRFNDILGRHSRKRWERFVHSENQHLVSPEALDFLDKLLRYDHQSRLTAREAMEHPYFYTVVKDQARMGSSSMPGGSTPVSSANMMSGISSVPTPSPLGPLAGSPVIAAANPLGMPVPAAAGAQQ
Method: The ADP-Glo kinase assay (Promega) was used to measure the inhibition effect of the tested compounds. The kinase assay was carried in 96-well plate in volume of 25 μl in 20 mM Tris–HCl (pH 7.5) buffer, containing 100 ng hCK2α (1 μl), 10 μM CK2 substrate peptide […] (Biaffin GmbH & Co KG), 10 μM ATP, 20 mM MgCl2 and 2.5 μl of serially diluted ligand in DMSO. The reaction was initiated with enzyme in and kept going for 20 min at 30 °C. Reaction was stopped by adding 25 μl of ADP-Glo reagent. After incubation at room temperature for 40 min (to consume the remaining […]) 50 μl of kinase detection reagent were added and incubated for additional 30 minutes to produce luminescence signal. Luminescence was measured with The SpectraMax iD3 Multi-Mode Microplate Reader (Molecular Devices).

[2] = molecular target: T1, hCK2α; assay: Relaxation-filtered 1H NMR (transverse relaxation) of peptides in the presence of hCK2α; type: binding; conditions: for R2,f, relaxation rate in the presence of hCK2α: 25 μM hCK2α, 2.5 mM peptide (100-fold excess), 25 mM Tris-HCl pH 7, 0.25 M NaCl, 10% D2O, global two-exponential fit, higher = stronger binding; for R2,f, relaxation rate in the presence of hCK2α / R2,s, relaxation rate for the free peptide: 25 °C; for Relative binding to hCK2α, in words: relaxation-filtered NMR, compared with the other tested peptides; for R2,s, relaxation rate for the free peptide: same samples, slower component of the global two-exponential fit
Method: NMR samples containing tested peptides and hCk2α were prepared in 25 mM Tris–HCl (pH 7, 0.25 M NaCl) buffer with 10% D2O. The protein concentration was 25 μM, and a 100-fold peptide excess (2.5 mM) was used throughout the studies.
The scoring of the peptides’ binding affinities towards hCK2α was done according to the results of ^1H transverse (T2) relaxation filtering experiment. All spectra were recorded at 25 °C on Bruker Avance 500 NMR spectrometer (11.7 T) using 18 delays (0, 1, 2, 3, 4, 5, 10, 15, 20, 25, 30, 35, 40, 45, 50, 100, 150 and 200 ms). The spectra of 7500 Hz spectral width, 16k data points each, were collected using 16 scans with 2.0 s recycling delay preceded by 8 dummy scans.
NMR data were further processed and analyzed with the SpinWorks software (version 4.2.8.0), using cosine-squared window function and Gaussian filter resulting in 0.3 Hz broadening with no solvent filter applied prior to Fourier transformation. We analyzed ^1H transverse relaxation rates of selected nuclei representative for each type of amino acid residues present in the tested peptides, i.e Hγ of Glu (2.3ppm), Hβ of Asp (2.8ppm), Hβ of Ser (3.8ppm), Hγ(CH3) of Thr (1.1 ppm) and Hε of Lys (2.9ppm), respectively. Additionally, the resonance signals of amide protons (8.2–8.9ppm) were also analyzed. We performed the relaxation-filtered experiment, with the relaxation delay varying in the range of 1 to 200 ms. Variation in the intensity of particular resonance signals were analyzed using the model of two-exponential decay (1):1 y=A1⋅exp(t∗R2,f)+A2⋅exp(t∗R2,s)+y0 where R2,s and R2,f are the transverse relaxation rates of the free and the fraction of the virtually bound peptide, respectively. For each peptide the global optimization procedure was applied for all identified resonance signals.

With `O=C(O)c1c(Br)c(Br)c(Br)c2nn[nH]c12` [7-COOH-Br3Bt] as the molecule, how does the IC50 ([1]; ADP-Glo, 100 ng hCK2α, 10 μM RRRDDDSDDD, 10 μM ATP, 20 mM MgCl2, pH 7.5, 20 min 30 °C, global fit of three independent experiments) read?
The IC50 was 8 ± 6.3 µM.

For `NC(=O)[C@H](CCC(=O)O)NC(=O)[C@H](CCC(=O)O)NC(=O)[C@H](CCC(=O)O)NC(=O)[C@H](CO)NC(=O)[C@H](CCC(=O)O)NC(=O)[C@@H](N)CCCCNC(=O)c1c(Br)c(Br)c(Br)c2nn[nH]c12` [bi-substrate inhibitor] (H-K(X1)ESEEE-NH2), which “Enhancement of inhibitory activity versus low-mass precursor 7-COOH-Br3Bt” value ([1]; ratio of IC50 values) is on record?
The value was “over 10 fold”.

Which “R2,f, relaxation rate in the presence of hCK2α” value (from here on “R2,f, relaxation rate”) [2] does the source give for DDTDDD-NH2 here?
The value was 7.1 ± 0.8 s⁻¹.

And the “Relative binding to hCK2α, in words” value [2]?
Its value is “binds visibly weaker”.

How did the “Relative binding to hCK2α, in words” value [2] turn out when “DESEEE-NH2 [peptide named only in b23, possibly a misprint of DETEEE-NH2]” was run?
Its value is “lower affinity”.

What does the source list for DETEEE-NH2?
R2,f, relaxation rate in the presence of hCK2α [2]: 10.4 ± 1.6 s⁻¹; R2,s, relaxation rate for the free peptide [2]: 2.2 ± 0.6 s⁻¹

For EDTEEE-NH2, which “R2,f, relaxation rate” value [2] is on record?
Its value is 14.9 ± 2.5 s⁻¹.

And the “R2,s, relaxation rate for the free peptide” value [2]?
Its value is 1.5 ± 0.7 s⁻¹.

For EETDEE-NH2, which “R2,f, relaxation rate” value [2] is on record?
Its value is 15.4 ± 2.1 s⁻¹.

And the “R2,s, relaxation rate for the free peptide” value [2]?
Its value is 2.3 ± 0.5 s⁻¹.

How did the “R2,f, relaxation rate” value [2] turn out when EETEDE-NH2 was run?
Its value is 17.2 ± 4.8 s⁻¹.

What about the “R2,s, relaxation rate for the free peptide” value [2] of the same molecule?
The value was 3.7 ± 0.5 s⁻¹.

EETEED-NH2 was tested. Which “R2,f, relaxation rate” value [2] did it give?
Its value is 16.1 ± 2.3 s⁻¹.

And the “R2,s, relaxation rate for the free peptide” value [2]?
The value was 2.2 ± 0.5 s⁻¹.
